In this data set the test system is CCRIS mutagenicity, Ames/micronucleus/aberration tests. The experiment in a line: CCRIS mutagenicity studies.
The mark [1] stands for this setting: Test System: AMES SALMONELLA TYPHIMURIUM, Strain/Indicator: TA100, Metabolic Activation: NONE, Method: STANDARD PLATE.
[2] abbreviates: Test System: AMES SALMONELLA TYPHIMURIUM, Strain/Indicator: TA98, Metabolic Activation: NONE, Method: PREINCUBATION
[3] abbreviates: Test System: AMES SALMONELLA TYPHIMURIUM, Strain/Indicator: TA98, Metabolic Activation: NONE, Method: STANDARD PLATE.
Where [4] appears, read: Test System: AMES SALMONELLA TYPHIMURIUM, Strain/Indicator: TA100, Metabolic Activation: NONE, Method: PREINCUBATION
[5] abbreviates: Test System: AMES SALMONELLA TYPHIMURIUM, Strain/Indicator: TA1535, Metabolic Activation: NONE, Method: PREINCUBATION
Where [6] appears, read: Test System: AMES SALMONELLA TYPHIMURIUM, Strain/Indicator: TA1537, Metabolic Activation: NONE, Method: PREINCUBATION

Molecules are shown by their SMILES. Activity calls are given as the source filed them. The rule behind the calls is not given here.

The results in this text go back to PubChem BioAssay AID1259407 (Chemical Carcinogenesis Research Information System (CCRIS), 2018).

For the compound `CN1CC[C@H](c2c(O)cc(O)c3c(=O)cc(-c4ccccc4Cl)oc23)[C@H](O)C1`, the mutagenic call is “inactive; negative” (Test System: Mouse lymphoma, Strain/Indicator: L5178Y (tk+/tk-), Metabolic Activation: None, Method: Suspension/plate) and “active; inconclusive (previous evaluation positive)” (Test System: Mouse lymphoma, Strain/Indicator: L5178Y (tk+/tk-), Metabolic Activation: Rat, Liver, S-9, Aroclor 1254, Method: Suspension/plate).

For `O=C1OC(O)C(CBr)=C1Br` (stereo not drawn), the mutagenic call under setting [1] is “active; positive”.

`CCCCCCCC/C=C\CCCCCCCC(=O)O`: the mutagenic call (Test System: AMES SALMONELLA TYPHIMURIUM, Strain/Indicator: TA97, Metabolic Activation: HAMSTER, LIVER, S-9, AROCLOR 1254 (10 OR 30%), Method: PREINCUBATION) is “inactive; negative”; the mutagenic call (Test System: AMES SALMONELLA TYPHIMURIUM, Strain/Indicator: TA97, Metabolic Activation: NONE, Method: PREINCUBATION) was “inactive; negative”; the mutagenic call (Test System: AMES SALMONELLA TYPHIMURIUM, Strain/Indicator: TA97, Metabolic Activation: RAT, LIVER, S-9, AROCLOR 1254 (10 OR 30%), Method: PREINCUBATION) is “inactive; negative”; the mutagenic call (Test System: AMES SALMONELLA TYPHIMURIUM, Strain/Indicator: TA98, Metabolic Activation: HAMSTER, LIVER, S-9, AROCLOR 1254 (10 OR 30%), Method: PREINCUBATION) was “inactive; negative”; the mutagenic call under setting [2] is “inactive; negative”; the mutagenic call under setting [3] was “inactive; negative”. The mutagenic call is, setting by setting: (Test System: AMES SALMONELLA TYPHIMURIUM, Strain/Indicator: TA98, Metabolic Activation: RAT, LIVER, S-9, AROCLOR 1254 (10 OR 30%), Method: PREINCUBATION) “inactive; negative”; (Test System: AMES SALMONELLA TYPHIMURIUM, Strain/Indicator: TA98, Metabolic Activation: RAT, LIVER, S-9, KC 500, Method: PREINCUBATION) “inactive; negative”; (Test System: AMES SALMONELLA TYPHIMURIUM, Strain/Indicator: TA98, Metabolic Activation: S-9, PHENOBARBITAL, Method: STANDARD PLATE) “inactive; negative”; (Test System: AMES SALMONELLA TYPHIMURIUM, Strain/Indicator: TA100, Metabolic Activation: HAMSTER, LIVER, S-9, AROCLOR 1254 (10 OR 30%), Method: PREINCUBATION) “inactive; negative”; under setting [4], “inactive; negative”; under setting [1], “inactive; negative”. In addition, the mutagenic call was “inactive; negative” (Test System: AMES SALMONELLA TYPHIMURIUM, Strain/Indicator: TA100, Metabolic Activation: RAT, LIVER, S-9, AROCLOR 1254 (10 OR 30%), Method: PREINCUBATION); “inactive; negative” (Test System: AMES SALMONELLA TYPHIMURIUM, Strain/Indicator: TA100, Metabolic Activation: RAT, LIVER, S-9, KC 500, Method: PREINCUBATION); “inactive; negative” (Test System: AMES SALMONELLA TYPHIMURIUM, Strain/Indicator: TA100, Metabolic Activation: S-9, PHENOBARBITAL, Method: STANDARD PLATE); “inactive; negative” (Test System: AMES SALMONELLA TYPHIMURIUM, Strain/Indicator: TA1535, Metabolic Activation: HAMSTER, LIVER, S-9, AROCLOR 1254 (10 OR 30%), Method: PREINCUBATION); “inactive; negative” under setting [5]; “inactive; negative” (Test System: AMES SALMONELLA TYPHIMURIUM, Strain/Indicator: TA1535, Metabolic Activation: NONE, Method: STANDARD PLATE). Further, the mutagenic call runs as follows: (Test System: AMES SALMONELLA TYPHIMURIUM, Strain/Indicator: TA1535, Metabolic Activation: RAT, LIVER, S-9, AROCLOR 1254 (10 OR 30%), Method: PREINCUBATION) “inactive; negative”; (Test System: AMES SALMONELLA TYPHIMURIUM, Strain/Indicator: TA1535, Metabolic Activation: RAT, LIVER, S-9, KC 500, Method: PREINCUBATION) “inactive; negative”; (Test System: AMES SALMONELLA TYPHIMURIUM, Strain/Indicator: TA1535, Metabolic Activation: S-9, PHENOBARBITAL, Method: STANDARD PLATE) “inactive; negative”; under setting [6], “inactive; negative”; (Test System: AMES SALMONELLA TYPHIMURIUM, Strain/Indicator: TA1537, Metabolic Activation: NONE, Method: STANDARD PLATE) “inactive; negative”; (Test System: AMES SALMONELLA TYPHIMURIUM, Strain/Indicator: TA1537, Metabolic Activation: RAT, LIVER, S-9, KC 500, Method: PREINCUBATION) “inactive; negative”. Further, the mutagenic call runs as follows: (Test System: AMES SALMONELLA TYPHIMURIUM, Strain/Indicator: TA1537, Metabolic Activation: S-9, PHENOBARBITAL, Method: STANDARD PLATE) “inactive; negative”; (Test System: AMES SALMONELLA TYPHIMURIUM, Strain/Indicator: TA1538, Metabolic Activation: NONE, Method: PREINCUBATION) “inactive; negative”; (Test System: AMES SALMONELLA TYPHIMURIUM, Strain/Indicator: TA1538, Metabolic Activation: RAT, LIVER, S-9, KC 500, Method: PREINCUBATION) “inactive; negative”; (Test System: E. COLI, Strain/Indicator: WP2 UVRA, Metabolic Activation: NONE, Method: PREINCUBATION) “inactive; negative”; (Test System: E. COLI, Strain/Indicator: WP2 UVRA, Metabolic Activation: NONE, Method: STANDARD PLATE) “inactive; negative”; (Test System: E. COLI, Strain/Indicator: WP2 UVRA, Metabolic Activation: RAT, LIVER, S-9, KC 500, Method: PREINCUBATION) “inactive; negative”. Moreover, for the setting “Test System: E. COLI, Strain/Indicator: WP2 UVRA, Metabolic Activation: S-9, PHENOBARBITAL, Method: STANDARD PLATE”, the mutagenic call is “inactive; negative”.

`CC1CS(=O)(=O)CCN1/N=C/c1ccc([N+](=O)[O-])o1` (stereo not drawn): the mutagenic call was “active; positive” (Test System: AMES SALMONELLA TYPHIMURIUM, Strain/Indicator: TA97, Metabolic Activation: NONE, Method: STANDARD PLATE); “inactive; negative” under setting [3]; “active; positive” under setting [1]; “active; positive” (Test System: AMES SALMONELLA TYPHIMURIUM, Strain/Indicator: TA100, Metabolic Activation: RAT, LIVER, S-9, AROCLOR 1254, Method: STANDARD PLATE); “active; positive” (Test System: AMES SALMONELLA TYPHIMURIUM, Strain/Indicator: TA102, Metabolic Activation: NONE, Method: STANDARD PLATE).

In the case of `CCCCOCCOC(=O)COc1ccc(Cl)cc1Cl`, the mutagenic call by setting is: under setting [2], “inactive; negative”; (Test System: AMES SALMONELLA TYPHIMURIUM, Strain/Indicator: TA98, Metabolic Activation: RAT LIVER S-9, AROCLOR 1254, 10%, Method: PREINCUBATION) “inactive; negative”; under setting [4], “inactive; negative”; (Test System: AMES SALMONELLA TYPHIMURIUM, Strain/Indicator: TA100, Metabolic Activation: RAT LIVER S-9, AROCLOR 1254, 10%, Method: PREINCUBATION) “inactive; negative”; under setting [5], “inactive; negative”; (Test System: AMES SALMONELLA TYPHIMURIUM, Strain/Indicator: TA1535, Metabolic Activation: RAT LIVER S-9, AROCLOR 1254, 10%, Method: PREINCUBATION) “inactive; negative”. Also, the mutagenic call runs as follows: under setting [6], “inactive; negative”; (Test System: AMES SALMONELLA TYPHIMURIUM, Strain/Indicator: TA1537, Metabolic Activation: RAT LIVER S-9, AROCLOR 1254, 10%, Method: PREINCUBATION) “inactive; negative”; (Test System: UDS RAT HEPATOCYTES, Strain/Indicator: THYMIDINE INCORPORATION, Metabolic Activation: NONE, Method: AUTORADIOGRAPHY) “inactive; negative”.
